From patent US4450269A, “Mono-5-substituted-3-chloro-4H-1,2,6-thiadiazin-4-one antifungal agents” (FMC Corporation, priority 1980, dated 1984)
Read-outs that look alike come from different tables or passages of the source.

Key:
[1] = test system: Sclerotinia fructicola; test: Mycelial growth test; type: cell-based; settings: Sclerotinia, 72 h, SF, read-out: Percent Fungus Growth Inhibition
Excerpt: | SF = Sclerotinia fructicola

[2] = test system: Uromyces phaseoli; test: whole plant or invertebrate; settings: foliar, 24 h, read-out: Percent Disease Control, curative, bean rust
[3] = test system: Alternaria solani; test: Spore germination test; type: cell-based; settings: AS, 48 hours
How it was run: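 Compound in acetone was mixed into water agar at final 40, 10, 2.5 and 1 ppm and poured into quadrant dishes. Quadrants received spore suspension, while Erysiphe polygoni and Uromyces phaseoli spores were brushed on from infected leaves. After 48 h at 24 °C, the percentage of germinated spores was converted to a germination rating.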

[4] = test system: Uromyces phaseoli; test: whole plant or invertebrate; settings: foliar, read-out: Percent Disease Control, foliar, bean rust

Row | SMILES | inhibition at 5 ppm [1] | inhibition at 10 ppm [1] | inhibition at 20 ppm [1] | inhibition at 40 ppm [1] | pest or weed control at 150 ppm [2] | Spore Germination Rating ([3]; 1.0 ppm) | Spore Germination Rating ([3]; 2.5 ppm) | Spore Germination Rating ([3]; 10 ppm) | Spore Germination Rating ([3]; 40 ppm) | pest or weed control at 150 ppm [4]
1 | Cc1ccc(Oc2nsnc(Cl)c2=O)cc1 [Compound 3, 3-chloro-5-(4-methylphenoxy)-4H--1,2,6-thiadiazin-4-one] | 27% | 67% | 94% | 100% | 0% | 4 (80-100) | 4 (80-100) | 0 (0-10) | 0 (0-10) | 100%
2 | O=c1c(Cl)nsnc1Oc1cccc(C(F)(F)F)c1 [Compound 44, 3-chloro-5-[(3-trifluoromethyl)phenoxy]-4H--1,2,6-thiadiazin-4-one] | 76% | 100% | 100% | 100% | 0% | 4 (80-100) | 1 (10-40) | 0 (0-10) | 0 (0-10) | 100%
3 | CC(=O)c1ccc(Oc2nsnc(Cl)c2=O)cc1 [Compound 47, 3-(4-acetylphenoxy)-5-chloro-4H--1,2,6-thiadiazin-4-one] | 82% | 82% | 100% | 100% | 0% | 2 (40-60) | 0 (0-10) | 0 (0-10) | 0 (0-10) | 0%
4 | CCOC(=O)c1ccc(Oc2nsnc(Cl)c2=O)cc1 [Compound 7, 3-chloro-5-(4-ethoxycarbonylphenoxy)-4H--1,2,6-thiadiazin-4-one] | 54% | 100% | 100% | 100% | 0% | 4 (80-100) | 4 (80-100) | 4 (80-100) | 4 (80-100) | 100%
5 | CC(=O)Nc1ccccc1Oc1nsnc(Cl)c1=O [Compound 43, 3-[(2-acetylamino)-phenoxy]-5-chloro-4H--1,2,6-thiadiazin-4-one] | 0% | 0% | 17% | 22% | 0% | 4 (80-100) | 4 (80-100) | 4 (80-100) | 3 (60-80) | 0%
6 | O=c1c(Cl)nsnc1Oc1c(Cl)cccc1Cl [Compound 18, 3-chloro-5-(2,6-dichlorophenoxy)-4H--1,2,6-thiadiazin-4-one] | 51% | 64% | 89% | 100% | 0% | 3 (60-80) | 2 (40-60) | 1 (10-40) | 0 (0-10) | 100%
7 | Cc1ccc(Oc2nsnc(Cl)c2=O)c(C)c1 [Compound 23, 3-chloro-5-(2,4-dimethylphenoxy)-4H--1,2,6-thiadiazin-4-one] | 82% | 100% | 100% | 100% | 0% | 3 (60-80) | 3 (60-80) | 0 (0-10) | 0 (0-10) | 100%
8 | CC(C)(C)c1ccc(Oc2nsnc(Cl)c2=O)cc1 [Compound 4, 3-chloro-5-(4-tert-butylphnoxy)-4H--1,2,6-thiadiazin-4-one] | 0% | 0% | 4% | 0% | 75% | 4 (80-100) | 4 (80-100) | 4 (80-100) | 4 (80-100) | 100%
9 | N#Cc1ccc(Oc2nsnc(Cl)c2=O)cc1 [Compound 10, 3-chloro-5-(4-cyanophenoxy)-4H--1,2,6-thiadiazin-4-one] |  | 33% | 100% | 100% | 0% | 1 (10-40) | 1 (10-40) | 1 (10-40) | 1 (10-40) | 100%
10 | O=c1c(Cl)nsnc1Oc1ccc(Cl)c(Cl)c1 [Compound 16, 3-chloro-5-(3,4-dichlorophenoxy)-4H--1,2,6-thiadiazin-4-one] | 64% | 67% | 67% | 67% | 0% | 1 (10-40) | 0 (0-10) | 0 (0-10) | 0 (0-10) | 90%
11 | Cc1cc(Oc2nsnc(Cl)c2=O)cc(C)c1Cl [Compound 59, 3-chloro-5-[(4-chloro-3,5-dimethyl)phenoxy]-4H--1,2,6-thiadiazin-4-one] | 71% | 68% | 59% | 74% | 0% | 4 (80-100) | 4 (80-100) | 4 (80-100) | 4 (80-100) | 0%
12 | CC(=O)Nc1ccc(Oc2nsnc(Cl)c2=O)cc1 [Compound 8, 5-(4-acetylaminophenoxy)-3-chloro-4H--1,2,6-thiadiazin-4-one] | 0% | 0% | 51% | 60% | 0% | 3 (60-80) | 2 (40-60) | 2 (40-60) | 0 (0-10) | 100%
13 | CCCCOc1ccc(Oc2nsnc(Cl)c2=O)cc1 [Compound 6, 3-chloro-5-(4-n-butoxyphenoxy)-4H--1,2,6-thiadiazin-4-one] | 0% | 67% | 0% | 67% | 90% | 4 (80-100) | 4 (80-100) | 4 (80-100) | 4 (80-100) | 0%
14 | CNC(=O)Nc1ccc(Oc2nsnc(Cl)c2=O)cc1 [Compound 28, 3-chloro-5-[4-(3-methylureido)-phenoxy]-4H--1,2,6-thiadiazin-4-one] | 17% | 28% | 0% | 62% | 0% | 4 (80-100) | 4 (80-100) | 4 (80-100) | 4 (80-100) | 0%
15 | O=c1c(Cl)nsnc1Oc1ccc(Cl)cc1Cl [Compound 17, 3-chloro-5-(2,4-dichlorophenoxy)-4H--1,2,6-thiadiazin-4-one] | 62% | 76% | 96% | 100% | 100% | 2 (40-60) | 1 (10-40) | 0 (0-10) | 0 (0-10) | 100%
16 | O=c1c(Cl)nsnc1Oc1c(Cl)cc(Cl)cc1Cl [Compound 30, 3-chloro-5-(2,4,6-trichlorophenoxy)-4H--1,2,6-thiadiazin-4-one] | 50% | 87% | 97% | 97% | 0% | 3 (60-80) | 0 (0-10) | 0 (0-10) | 0 (0-10) | 100%
17 | CS(=O)(=O)c1ccc(Oc2nsnc(Cl)c2=O)cc1 [Compound 41, 3-chloro-5-[(4-methylsulfonyl)phenoxy]-4H--1,2,6-thiadiazin-4-one] | 56% | 78% | 100% | 100% | 0% | 4 (80-100) | 2 (40-60) | 0 (0-10) | 0 (0-10) | 0%
18 | COc1ccc(Oc2nsnc(Cl)c2=O)cc1 [Compound 5, 3-chloro-5-(4-methoxyphenoxy)4H--1,2,6-thiadiazin-4-one] | 27% | 42% | 67% | 73% | 0% | 2 (40-60) | 0 (0-10) | 0 (0-10) | 0 (0-10) | 100%
19 | Cc1ccc(Cl)c(Oc2nsnc(Cl)c2=O)c1 [Compound 56, 3-chloro-5-[(2-chloro-5-methyl)phenoxy]-4H--1,2,6-thiadiazin-4-one] | 69% | 78% | 100% | 100% | 100% | 4 (80-100) | 3 (60-80) | 0 (0-10) | 0 (0-10) | 0%
20 | N#CCc1ccc(Oc2nsnc(Cl)c2=O)cc1 [Compound 46, 3-chloro-5-[(4-cyanomethyl)-phenoxy]4H--1,2,6-thiadiazin-4-one] | 19% | 76% | 81% | 100% | 0% | 4 (80-100) | 2 (40-60) | 2 (40-60) | 0 (0-10) | 0%
21 | O=C(Nc1ccccc1)Oc1ccc(Oc2nsnc(Cl)c2=O)cc1 [Compound 37, 3-chloro-5-[4-(phenylaminocarbonyloxy)phenoxy]-4H-1,2,6,-thiadiazin-4-one] | 30% | 59% | 56% | 59% | 0% | 4 (80-100) | 4 (80-100) | 4 (80-100) | 3 (60-80) | 100%
